Experimental data from paper PMC6450673, “Targeted degradation of aberrant tau in frontotemporal dementia patient-derived neuronal cell models” (eLife, 2019).
pKd: −log10 of the molar value.

Biological target: T1, recombinant human tau Tau-441(WT) (Homo sapiens, UniProt P10636)
T1 construct: biotin (chemical label, NHS-PEG4); purchased SignalChem T08-54BN; host or cells: E. coli
Test: Bio-layer interferometry (BLI) biosensor assay, tau WT
Format: binding
Conditions: BLI steady-state analysis, immobilized biotinylated tau; Figure 1—figure supplement 1B
Experimental: BLI was performed in the Octet Red384 instrument (ForteBio, Fremont CA, USA) with 1X PBS and 0.01% Brij-35 as the assay buffer. […] The biotinylated protein samples for BLI were purified in 1X phosphate buffered saline (PBS). Streptavidin (SA) sensors were used to measure the biophysical interaction between the small molecules and biotinylated tau. Prior to the initiation of BLI, the SA sensors were soaked by dipping in 200 μL of assay buffer in a 96-well Greiner Bio-One Black flat bottom plate (Greiner, Monroe NC, USA Cat.655209). The assay was performed in 80 μL volume in Greiner Bio-One 384-well black flat bottom PP plates (Greiner, Cat.781209) with an initial baseline step, followed by loading of 250 nM biotinylated tau protein. The small molecules samples and recombinant proteins were arranged in the 384-well plate according to a plate map recommended for the eight-channel mode kinetic analysis, where the sensors move from low to high concentration of small molecule samples. Subsequent steps included a second baseline (120 s), followed by association (240 s) and dissociation (240 s) cycles. […] When Req option is selected, Fortebio’s software calculates affinity constants based on the Req values determined from the curve fits. […]

T1 sequence (P10636 1-441 isoform P10636-8): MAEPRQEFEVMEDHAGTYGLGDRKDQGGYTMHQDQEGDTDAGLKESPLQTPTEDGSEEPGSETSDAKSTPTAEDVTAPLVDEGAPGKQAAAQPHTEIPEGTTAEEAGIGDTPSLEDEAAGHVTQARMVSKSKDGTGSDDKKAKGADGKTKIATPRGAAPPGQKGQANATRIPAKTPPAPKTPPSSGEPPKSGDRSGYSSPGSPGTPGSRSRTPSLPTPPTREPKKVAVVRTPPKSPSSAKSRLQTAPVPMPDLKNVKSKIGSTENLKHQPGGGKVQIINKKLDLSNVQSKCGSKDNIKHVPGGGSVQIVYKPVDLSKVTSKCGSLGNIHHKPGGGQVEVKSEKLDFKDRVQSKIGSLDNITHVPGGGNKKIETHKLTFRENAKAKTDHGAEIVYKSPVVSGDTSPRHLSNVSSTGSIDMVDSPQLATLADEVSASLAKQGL

O=C(CCc1ccc2c(c1)[nH]c1ccncc12)NCCOCCOCCNc1cccc2c1C(=O)N(C1CCC(=O)NC1=O)C2=O (stereo not shown) [QC-01–175]
pKd: 5.92
